Each compound was assayed on IL-5 production (assay: In vitro inhibition of IL-5 production in human blood (phytohemagglutinin-stimulated whole blood, ELISA)). Details: test dose 1×10^−5 M (values marked *), 48 hours, read-out: % inh. (percentage inhibition of IL-5 production), marked with *.
Type: cell-based
Method: In Vitro Inhibition of IL-5 Production in Human Blood
Human Whole Blood Stimulation
Peripheral blood from healthy male donors was drawn into heparinized syringes (12.5 U heparin/ml). Blood samples were three-fold diluted in RMPI 1640 medium (Life Technologies, Belgium) supplemented with 2 mM L-glutamine, 100 U/ml penicillin and 100 μg/ml streptomycin, and 300 μl fractions were distributed in 24-well multidisc plates. Blood samples were preincubated (60 minutes at 37° C.) in a humidified 6% CO2-atmosphere with 100 μl of drug solvent (final concentration 0.02% dimethylsulfoxide in RPMI 1640) or with 100 μl of an appropriate dose of test compound before being stimulated by the addition of 100 μl of phytohemagglutinin HA17 (Murex, UK) at a final concentration of 2 μg/ml. After 48 hours, cell-free supernatant fluids were collected by centrifugation and stored at −70° C. until tested for the presence of IL-5.
IL-5 measurements were conducted as described in Van Wauwe et al. (1996, Inflamm Res, 45, 357-363) on page 358 using ELISA.
Table 9 lists the percentage inhibition of IL-5 production (column “% inh”) at a test dose of 1×10^−6 M, or in case the percentage inhibition is marked with an “*” 1×10^−5 M, the compounds of the present invention.

Compound O=c1cnn(-c2ccc(C(NCc3ncc[nH]3)c3ccc(Cl)cc3)c(Cl)c2)c(=O)[nH]1 (racemic) [Compound 50, (±)-2-[3-chloro-4-[(4-chlorophenyl)[(1H-imidazol-2-ylmethyl)amino]methyl]phenyl]-1,2,4-triazine-3,5(2H,4H)-dione] has an inhibition at 10 µM of 20%.

Same assay, conditions: test dose 1×10^−6 M, 48 hours

Point of comparison: CN1CCN(C(=O)c2sc(C(c3ccc(Cl)cc3)c3c(Cl)cc(-n4ncc(=O)[nH]c4=O)cc3Cl)nc2-c2ccccc2)CC1 (racemic) [Comp 304], “% inh. (percentage inhibition of IL-5 production)” value 35%. Against it:
- O=C(O)Cc1sc(C(c2ccc(Cl)cc2)c2c(Cl)cc(-n3ncc(=O)[nH]c3=O)cc2Cl)nc1-c1ccccc1 (racemic) [Comp 300] — lower, 27%
- CNC(=O)Cc1sc(C(c2ccc(Cl)cc2)c2c(Cl)cc(-n3ncc(=O)[nH]c3=O)cc2Cl)nc1-c1ccccc1 (racemic) [Comp 301] — lower, 33%
- CN1CCN(Cc2sc(C(c3ccc(Cl)cc3)c3c(Cl)cc(-n4ncc(=O)[nH]c4=O)cc3Cl)nc2-c2ccccc2)CC1 (racemic) [Comp 302] — higher, 87%
- O=C(NC1CCN(Cc2ccccc2)CC1)c1sc(C(c2ccc(Cl)cc2)c2c(Cl)cc(-n3ncc(=O)[nH]c3=O)cc2Cl)nc1-c1ccccc1 (racemic) [Comp 305] — higher, 51%
- O=C(c1sc(C(c2ccc(Cl)cc2)c2c(Cl)cc(-n3ncc(=O)[nH]c3=O)cc2Cl)nc1-c1ccccc1)N1CCOCC1 (racemic) [Comp 306] — higher, 92%
- COCCNC(=O)c1sc(C(c2ccc(Cl)cc2)c2c(Cl)cc(-n3ncc(=O)[nH]c3=O)cc2Cl)nc1-c1ccccc1 (racemic) [Comp 307] — higher, 78%
- O=c1cnn(-c2cc(Cl)c(C(c3ccc(Cl)cc3)c3nc(-c4ccccc4)c(COC4CCCCC4)s3)c(Cl)c2)c(=O)[nH]1 (racemic) [Comp 310] — higher, 79%
- CN(C)CCN(C)Cc1sc(C(c2ccc(Cl)cc2)c2c(Cl)cc(-n3ncc(=O)[nH]c3=O)cc2Cl)nc1-c1ccccc1 (racemic) [Comp 311] — higher, 64%
- CN(C)CCNC(=O)c1sc(C(c2ccc(Cl)cc2)c2c(Cl)cc(-n3ncc(=O)[nH]c3=O)cc2Cl)nc1-c1ccccc1.O (racemic) [Comp 312] — higher, 57%
- COC1CCN(Cc2sc(C(c3ccc(Cl)cc3)c3c(Cl)cc(-n4ncc(=O)[nH]c4=O)cc3Cl)nc2-c2ccccc2)CC1.Cl.O (racemic) [Comp 314] — higher, 81%
- COCCNCc1sc(C(c2ccc(Cl)cc2)c2c(Cl)cc(-n3ncc(=O)[nH]c3=O)cc2Cl)nc1-c1ccccc1 (racemic) [Comp 316] — higher, 85%
- CN(C)CCNC(=O)Cc1sc(C(c2ccc(Cl)cc2)c2c(Cl)cc(-n3ncc(=O)[nH]c3=O)cc2Cl)nc1-c1ccccc1 (racemic) [Comp 317] — higher, 67%
- COCCNC(=O)Cc1sc(C(c2ccc(Cl)cc2)c2c(Cl)cc(-n3ncc(=O)[nH]c3=O)cc2Cl)nc1-c1ccccc1 (racemic) [Comp 320] — higher, 94%
- O=c1cnn(-c2cc(Cl)c(C(c3ccc(Cl)cc3)c3nc(-c4ccccc4)c(CN4CCC(N5CCCCC5)CC4)s3)c(Cl)c2)c(=O)[nH]1 (racemic) [Comp 321] — higher, 92%
- CN1CCC(N(C)Cc2sc(C(c3ccc(Cl)cc3)c3c(Cl)cc(-n4ncc(=O)[nH]c4=O)cc3Cl)nc2-c2ccccc2)CC1 (racemic) [Comp 322] — higher, 96%
- O=C(Cc1sc(C(c2ccc(Cl)cc2)c2c(Cl)cc(-n3ncc(=O)[nH]c3=O)cc2Cl)nc1-c1ccccc1)NC1CCN(Cc2ccccc2)CC1 (racemic) [Comp 326] — higher, 89%
- Cc1sc(C(c2ccc(Cl)cc2)c2c(Br)cc(-n3ncc(=O)[nH]c3=O)cc2Br)nc1-c1ccccc1 (racemic) [Comp 330] — higher, 94%
- CN(CCc1ccccc1)Cc1sc(C(c2ccc(Cl)cc2)c2c(Cl)cc(-n3ncc(=O)[nH]c3=O)cc2Cl)nc1-c1ccccc1 (racemic) [Comp 332] — higher, 86%
- O=C(NCc1sc(C(c2ccc(Cl)cc2)c2c(Cl)cc(-n3ncc(=O)[nH]c3=O)cc2Cl)nc1-c1ccccc1)Nc1ccc(Cl)cc1 (racemic) [Comp 333] — higher, 61%
- CN(Cc1sc(C(c2ccc(Cl)cc2)c2c(Cl)cc(-n3ncc(=O)[nH]c3=O)cc2Cl)nc1-c1ccccc1)C1CCCCC1 (racemic) [Comp 334] — higher, 75%
- CN(C)CCN(C)C(=O)Cc1sc(C(c2ccc(Cl)cc2)c2c(Cl)cc(-n3ncc(=O)[nH]c3=O)cc2Cl)nc1-c1ccccc1 (racemic) [Comp 335] — higher, 52%
- O=c1cnn(-c2cc(Cl)c(C(c3ccc(Cl)cc3)c3nc(-c4ccccc4)c(CNS(=O)(=O)Cc4ccccc4)s3)c(Cl)c2)c(=O)[nH]1 (racemic) [Comp 336] — higher, 88%
- O=c1cnn(-c2cc(Cl)c(C(c3ccc(Cl)cc3)c3nc(-c4cccc(F)c4F)cs3)c(Cl)c2)c(=O)[nH]1 (racemic) [Comp 337] — higher, 96%
- Cc1cc(NC(c2ccc(Cl)cc2)c2ccc(-n3ncc(=O)[nH]c3=O)cc2Cl)no1 (racemic) [Compound 40] — lower, 31%
- COCCNC(c1ccc(Cl)cc1)c1ccc(-n2ncc(=O)[nH]c2=O)cc1Cl (racemic) [Compound 41] — lower, 11%
- COc1cc(C)nc(NC(c2ccc(Cl)cc2)c2ccc(-n3ncc(=O)[nH]c3=O)cc2Cl)n1 (racemic) [Compound 42] — higher, 57%
- Cl.O=c1cnn(-c2ccc(C(NCCc3ccco3)c3ccc(Cl)cc3)c(Cl)c2)c(=O)[nH]1 (racemic) [Compound 43] — higher, 37%
- O=c1cnn(-c2ccc(C(Nc3nccs3)c3ccc(Cl)cc3)c(Cl)c2)c(=O)[nH]1 (racemic) [Compound 44] — higher, 40%
- O=c1cnn(-c2ccc(C(NC3CCCCC3)c3ccc(Cl)cc3)c(Cl)c2)c(=O)[nH]1 (racemic) [Compound 46] — higher, 64%
- O=C(NC(c1ccc(Cl)cc1)c1ccc(-n2ncc(=O)[nH]c2=O)cc1Cl)c1ccccc1 (racemic) [Compound 47, (±)-N-[[2-chloro-4-(4,5-dihydro-3,5-dioxo-1,2,4-triazin-3(2H)-yl)phenyl](4-chlorophenyl)methyl]benzamide] — lower, 33%
- CN1CCC(NC(c2ccc(Cl)cc2)c2ccc(-n3ncc(=O)[nH]c3=O)cc2Cl)CC1 (racemic) [Compound 48, (±)-2-[3-chloro-4-[(4-chlorophenyl)[(1-methyl)-4-piperidinyl)amino]methyl]phenyl]-1,2,4-triazine-3,5(2H,4H)-dione] — lower, 29%

Same assay, conditions: test dose 1×10^−6 M, 48 hours, read-out: % inh. (percentage inhibition of IL-5 production)

Point of comparison: O=c1cnn(-c2cc(Cl)c(C(c3ccc(Cl)cc3)c3nccs3)c(Cl)c2)c(=O)[nH]1 (racemic) [Compound 39, (±)-2-[3,5-dichloro-4-[(4-chlorophenyl)-2-thiazolylmethyl]-phenyl]-1,2,4-triazine-3,5(2H,4H)-dione], inhibition at 1 µM 68%. Against it:
- NC(c1ccc(Cl)cc1)(c1nccs1)c1ccc(-n2ncc(=O)[nH]c2=O)cc1Cl (racemic) [Compound 35, (±)-2-[3-chloro-4-[amino-(4-chlorophenyl)-2-thiazolylmethyl]phenyl]-1,2,4-triazine-3,5(2H,4H)-dione] — lower, 56%
- COC(c1ccc(Cl)cc1)(c1nccs1)c1ccc(-n2ncc(=O)[nH]c2=O)cc1Cl (racemic) [Compound 37, (±)-2-[3-chloro-4-[(4-chlorophenyl)-methoxy(2-thiazolyl)methyl]phenyl]-1,2,4-triazine-3,5(2H,4H)-dione] — lower, 61%
- O=c1cnn(-c2cc(Cl)c(C(c3ccc(Cl)cc3)c3nc(-c4ccccc4)cs3)c(Cl)c2)c(=O)[nH]1 (racemic) [Compound 38, (±)-2-[3,5-dichloro-4-[(4-chlorophenyl)(4-phenyl-2-thiazolyl)methyl]phenyl]-1,2,4-triazine-3,5(2H,4H)-dione] — higher, 92%
- O=c1cnn(-c2ccc(C(Nc3ncccn3)c3ccc(Cl)cc3)c(Cl)c2)c(=O)[nH]1 (racemic) [Compound 49, (±)-2-[3-chloro-4-[(4-chlorophenyl)(2-pyrimidinylamino)methyl]phenyl]-1,2,4-triazine-3,5(2H,4H)-dione] — lower, 61%
- O=c1cnn(-c2ccc(C(NCCO)c3ccc(Cl)cc3)c(Cl)c2)c(=O)[nH]1 (racemic) [Compound 51, (±)-2-[3-chloro-4-[(4-chlorophenyl)[(2-hydroxyethyl)amino]methyl]phenyl]-1,2,4-triazin-3,5(2H,4H)-dione] — lower, 10%

Reference: patent publication US6867207B2, “IL-5 inhibiting 6-azauracil derivatives” (Janssen Pharmaceutica N.V., priority 1997, dated 2005)
